# Measurements from ChEMBL document CHEMBL5649169 (ChemMedChem, 2018).
# What was measured:
# [1] = molecular target: NADH dehydrogenase [ubiquinone] iron-sulfur protein 7, mitochondrial (Homo sapiens) (UniProt O75251); further: assay method not described here
# [2] = molecular target: Ubiquitin-associated protein 2 (Homo sapiens) (UniProt Q5T6F2); further: assay method not described here
# [3] = molecular target: V-type proton ATPase subunit G 1 (Homo sapiens) (UniProt O75348); further: assay method not described here
# [4] = molecular target: Small ribosomal subunit protein uS3 (Homo sapiens) (UniProt P23396); further: assay method not described here
# [5] = molecular target: Pyridoxal kinase (Homo sapiens) (UniProt O00764); further: assay method not described here
# [6] = molecular target: Nuclear pore complex protein Nup93 (Homo sapiens) (UniProt Q8N1F7); further: assay method not described here
# Chain of Nuclear pore complex protein Nup93 (Homo sapiens) (Q8N1F7 whole entry, one chain of several): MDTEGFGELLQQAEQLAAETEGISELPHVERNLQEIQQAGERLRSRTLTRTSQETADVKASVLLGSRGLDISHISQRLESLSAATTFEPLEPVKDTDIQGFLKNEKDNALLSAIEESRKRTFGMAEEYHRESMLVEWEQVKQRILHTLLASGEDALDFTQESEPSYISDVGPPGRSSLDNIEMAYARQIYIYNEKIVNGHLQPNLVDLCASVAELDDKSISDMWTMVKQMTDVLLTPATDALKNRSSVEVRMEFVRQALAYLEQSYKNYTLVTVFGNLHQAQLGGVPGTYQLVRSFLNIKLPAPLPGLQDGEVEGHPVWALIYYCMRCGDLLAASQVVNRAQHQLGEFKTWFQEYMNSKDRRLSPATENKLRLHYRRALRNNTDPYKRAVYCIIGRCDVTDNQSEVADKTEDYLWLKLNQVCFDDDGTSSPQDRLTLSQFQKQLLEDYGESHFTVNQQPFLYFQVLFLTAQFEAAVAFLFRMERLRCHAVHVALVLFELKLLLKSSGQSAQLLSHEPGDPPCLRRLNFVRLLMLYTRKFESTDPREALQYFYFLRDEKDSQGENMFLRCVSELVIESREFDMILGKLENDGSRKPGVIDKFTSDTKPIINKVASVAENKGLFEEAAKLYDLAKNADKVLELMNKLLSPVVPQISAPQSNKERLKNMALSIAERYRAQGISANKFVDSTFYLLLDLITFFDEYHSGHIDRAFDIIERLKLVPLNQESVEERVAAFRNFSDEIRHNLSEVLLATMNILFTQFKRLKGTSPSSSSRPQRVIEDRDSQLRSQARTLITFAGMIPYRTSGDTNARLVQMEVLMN
# [7] = molecular target: Activin receptor type-2B (Homo sapiens) (UniProt Q13705); further: assay method not described here
# [8] = molecular target: Dual specificity protein kinase CLK1 (Homo sapiens) (UniProt P49759); further: assay method not described here
# [9] = molecular target: Cell division cycle 7-related protein kinase (Homo sapiens) (UniProt O00311); further: assay method not described here
# [10] = molecular target: Dolichyl-diphosphooligosaccharide--protein glycosyltransferase subunit STT3A (Homo sapiens) (UniProt P46977); further: assay method not described here
# [11] = molecular target: Oxysterol-binding protein-related protein 8 (Homo sapiens) (UniProt Q9BZF1); further: assay method not described here
# Chain of Oxysterol-binding protein-related protein 8 (Homo sapiens) (Q9BZF1 whole entry, the tested form may be a part): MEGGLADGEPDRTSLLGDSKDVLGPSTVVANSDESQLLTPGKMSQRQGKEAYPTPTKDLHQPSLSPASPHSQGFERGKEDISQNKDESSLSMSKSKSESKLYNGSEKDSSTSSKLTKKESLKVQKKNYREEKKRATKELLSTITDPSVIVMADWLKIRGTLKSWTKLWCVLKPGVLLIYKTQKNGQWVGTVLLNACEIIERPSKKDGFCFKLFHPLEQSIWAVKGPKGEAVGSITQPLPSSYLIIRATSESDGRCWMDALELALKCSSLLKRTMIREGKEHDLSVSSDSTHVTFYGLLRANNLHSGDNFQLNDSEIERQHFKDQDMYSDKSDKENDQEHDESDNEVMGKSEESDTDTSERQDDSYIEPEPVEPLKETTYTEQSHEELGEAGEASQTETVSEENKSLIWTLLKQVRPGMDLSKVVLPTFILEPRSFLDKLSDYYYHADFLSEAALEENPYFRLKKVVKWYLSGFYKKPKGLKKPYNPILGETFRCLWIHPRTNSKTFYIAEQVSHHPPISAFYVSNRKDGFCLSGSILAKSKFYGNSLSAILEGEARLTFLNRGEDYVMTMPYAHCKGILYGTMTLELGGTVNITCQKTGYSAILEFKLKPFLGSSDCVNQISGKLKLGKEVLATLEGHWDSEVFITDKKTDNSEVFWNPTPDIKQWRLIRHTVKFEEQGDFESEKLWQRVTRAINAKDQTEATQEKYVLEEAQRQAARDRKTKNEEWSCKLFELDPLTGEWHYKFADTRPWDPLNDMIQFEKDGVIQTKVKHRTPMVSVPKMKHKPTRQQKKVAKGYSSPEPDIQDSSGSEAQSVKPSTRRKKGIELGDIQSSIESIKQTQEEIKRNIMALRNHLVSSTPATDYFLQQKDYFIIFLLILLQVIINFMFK
# Ephrin type-A receptor 1 = Ephrin type-A receptor 1 (Homo sapiens, UniProt P21709); test: Inhibition of Nano Luc-fused full length C-terminal EPHA1 (unknown origin) expressed in HEK293T cells using NanoGlo as substrate incubated for 2 hrs in presence of tracer by NanoBRET assay; assay type: cell-based
# [12] = molecular target: Small ribosomal subunit protein uS12 (Homo sapiens) (UniProt P62266); further: assay method not described here
# [13] = molecular target: Poly(U)-binding-splicing factor PUF60 (Homo sapiens) (UniProt Q9UHX1); further: assay method not described here
# [14] = molecular target: Cell division cycle protein 23 homolog (Homo sapiens) (UniProt Q9UJX2); further: assay method not described here
# [15] = molecular target: Fanconi anemia group I protein (Homo sapiens) (UniProt Q9NVI1); further: assay method not described here
# [16] = molecular target: Ras-related protein Rab-5C (Homo sapiens) (UniProt P51148); further: assay method not described here
# Ephrin type-A receptor 8 = Ephrin type-A receptor 8 (Homo sapiens, UniProt P29322); test: Inhibition of Nano Luc-fused full length C-terminal EPHA8 (unknown origin) expressed in HEK293T cells using NanoGlo as substrate incubated for 2 hrs in presence of tracer by NanoBRET assay; assay type: cell-based
# [17] = molecular target: Sodium/potassium-transporting ATPase subunit beta-1 (Homo sapiens) (UniProt P05026); further: assay method not described here
# [18] = molecular target: Large ribosomal subunit protein uL3 (Homo sapiens) (UniProt P39023); further: assay method not described here
# [19] = molecular target: Mitogen-activated protein kinase kinase kinase 20 (Homo sapiens) (UniProt Q9NYL2); further: assay method not described here
# [20] = molecular target: Signal recognition particle subunit SRP72 (Homo sapiens) (UniProt O76094); further: assay method not described here
# [21] = molecular target: Serine/threonine-protein kinase 16 (Homo sapiens) (UniProt O75716); further: assay method not described here
# Chain of Serine/threonine-protein kinase 16 (Homo sapiens) (O75716 whole entry): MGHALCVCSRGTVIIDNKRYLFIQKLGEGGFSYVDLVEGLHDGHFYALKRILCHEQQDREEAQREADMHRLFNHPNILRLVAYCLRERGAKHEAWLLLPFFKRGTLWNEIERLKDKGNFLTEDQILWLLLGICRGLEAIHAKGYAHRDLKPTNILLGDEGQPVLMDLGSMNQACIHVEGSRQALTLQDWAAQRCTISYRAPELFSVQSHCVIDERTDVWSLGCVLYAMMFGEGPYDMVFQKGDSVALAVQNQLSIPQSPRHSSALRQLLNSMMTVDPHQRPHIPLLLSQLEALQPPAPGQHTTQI
# [22] = molecular target: Peripherin (Homo sapiens) (UniProt P41219); further: assay method not described here
# [23] = molecular target: Endoplasmic reticulum junction formation protein lunapark (Homo sapiens) (UniProt Q9C0E8); further: assay method not described here
# Ephrin type-A receptor 7 = Ephrin type-A receptor 7 (Homo sapiens, UniProt Q15375); further: assay method not described here
# Chain of Ephrin type-A receptor 7 (Q15375 28-998 limits assumed): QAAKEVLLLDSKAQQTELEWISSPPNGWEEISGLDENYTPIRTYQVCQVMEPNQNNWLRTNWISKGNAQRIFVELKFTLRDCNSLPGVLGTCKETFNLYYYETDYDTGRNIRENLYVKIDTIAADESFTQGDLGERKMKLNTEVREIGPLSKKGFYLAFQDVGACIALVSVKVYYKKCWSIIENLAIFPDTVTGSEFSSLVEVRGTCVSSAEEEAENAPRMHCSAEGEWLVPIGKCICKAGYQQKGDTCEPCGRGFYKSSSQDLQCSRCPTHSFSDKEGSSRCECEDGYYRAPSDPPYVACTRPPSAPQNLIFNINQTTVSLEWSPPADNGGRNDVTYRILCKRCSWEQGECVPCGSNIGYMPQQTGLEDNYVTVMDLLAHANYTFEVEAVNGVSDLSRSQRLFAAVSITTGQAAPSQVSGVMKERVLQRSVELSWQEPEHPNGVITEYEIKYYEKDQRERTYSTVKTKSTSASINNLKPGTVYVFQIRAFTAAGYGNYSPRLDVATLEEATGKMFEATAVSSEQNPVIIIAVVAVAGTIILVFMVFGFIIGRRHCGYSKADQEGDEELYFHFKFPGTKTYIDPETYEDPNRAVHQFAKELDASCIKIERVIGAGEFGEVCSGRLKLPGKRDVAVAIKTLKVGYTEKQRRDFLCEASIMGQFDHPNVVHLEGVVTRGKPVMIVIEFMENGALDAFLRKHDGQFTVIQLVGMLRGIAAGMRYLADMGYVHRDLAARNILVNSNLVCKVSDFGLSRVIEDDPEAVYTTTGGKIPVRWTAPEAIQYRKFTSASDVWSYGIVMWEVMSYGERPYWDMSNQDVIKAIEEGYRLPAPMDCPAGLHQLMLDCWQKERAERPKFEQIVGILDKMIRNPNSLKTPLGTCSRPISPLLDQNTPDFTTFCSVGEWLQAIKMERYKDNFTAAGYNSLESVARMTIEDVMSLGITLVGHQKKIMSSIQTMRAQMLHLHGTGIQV
# [24] = molecular target: Serine/arginine-rich splicing factor 6 (Homo sapiens) (UniProt Q13247); further: assay method not described here
# [25] = molecular target: Peroxisomal acyl-coenzyme A oxidase 1 (Homo sapiens) (UniProt Q15067); further: assay method not described here
# [26] = molecular target: Galactocerebrosidase (Homo sapiens) (UniProt P54803); further: assay method not described here
# [27] = molecular target: Alpha-actinin-4 (Homo sapiens) (UniProt O43707); further: assay method not described here
# Chain of Alpha-actinin-4 (Homo sapiens) (O43707 whole entry): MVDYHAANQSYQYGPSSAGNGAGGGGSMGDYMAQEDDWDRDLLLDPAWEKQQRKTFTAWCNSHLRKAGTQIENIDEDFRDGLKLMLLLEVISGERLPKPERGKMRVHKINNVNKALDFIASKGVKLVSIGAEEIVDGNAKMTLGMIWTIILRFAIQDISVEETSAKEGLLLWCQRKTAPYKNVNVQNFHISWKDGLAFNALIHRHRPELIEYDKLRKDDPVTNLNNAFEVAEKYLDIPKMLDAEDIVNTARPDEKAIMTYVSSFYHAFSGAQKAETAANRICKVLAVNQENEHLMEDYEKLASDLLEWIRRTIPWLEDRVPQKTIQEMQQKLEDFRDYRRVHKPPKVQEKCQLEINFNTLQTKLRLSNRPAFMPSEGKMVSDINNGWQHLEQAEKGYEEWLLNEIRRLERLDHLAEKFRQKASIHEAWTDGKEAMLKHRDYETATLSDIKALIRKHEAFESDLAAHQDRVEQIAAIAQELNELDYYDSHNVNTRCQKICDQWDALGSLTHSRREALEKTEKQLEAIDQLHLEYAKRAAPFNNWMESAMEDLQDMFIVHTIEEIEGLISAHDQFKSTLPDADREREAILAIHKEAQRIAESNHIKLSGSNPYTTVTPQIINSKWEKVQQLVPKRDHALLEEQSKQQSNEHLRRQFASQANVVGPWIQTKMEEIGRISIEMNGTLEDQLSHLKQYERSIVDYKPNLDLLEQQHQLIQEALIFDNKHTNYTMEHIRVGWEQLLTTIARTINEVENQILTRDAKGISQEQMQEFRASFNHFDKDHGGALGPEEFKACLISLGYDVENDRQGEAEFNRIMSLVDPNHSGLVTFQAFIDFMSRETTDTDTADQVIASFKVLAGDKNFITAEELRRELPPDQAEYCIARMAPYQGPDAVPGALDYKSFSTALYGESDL
# [28] = molecular target: Guanine nucleotide-binding protein G(i) subunit alpha-2 (Homo sapiens) (UniProt P04899); further: assay method not described here
# [29] = molecular target: Tyrosine-protein kinase Lck (Homo sapiens) (UniProt P06239); further: assay method not described here
# [30] = molecular target: Histone H1.0 (Homo sapiens) (UniProt P07305); further: assay method not described here
# [31] = molecular target: Splicing factor 3B subunit 3 (Homo sapiens) (UniProt Q15393); further: assay method not described here
# [32] = molecular target: Large neutral amino acids transporter small subunit 1 (Homo sapiens) (UniProt Q01650); further: assay method not described here
# Chain of Large neutral amino acids transporter small subunit 1 (Homo sapiens) (Q01650 whole entry): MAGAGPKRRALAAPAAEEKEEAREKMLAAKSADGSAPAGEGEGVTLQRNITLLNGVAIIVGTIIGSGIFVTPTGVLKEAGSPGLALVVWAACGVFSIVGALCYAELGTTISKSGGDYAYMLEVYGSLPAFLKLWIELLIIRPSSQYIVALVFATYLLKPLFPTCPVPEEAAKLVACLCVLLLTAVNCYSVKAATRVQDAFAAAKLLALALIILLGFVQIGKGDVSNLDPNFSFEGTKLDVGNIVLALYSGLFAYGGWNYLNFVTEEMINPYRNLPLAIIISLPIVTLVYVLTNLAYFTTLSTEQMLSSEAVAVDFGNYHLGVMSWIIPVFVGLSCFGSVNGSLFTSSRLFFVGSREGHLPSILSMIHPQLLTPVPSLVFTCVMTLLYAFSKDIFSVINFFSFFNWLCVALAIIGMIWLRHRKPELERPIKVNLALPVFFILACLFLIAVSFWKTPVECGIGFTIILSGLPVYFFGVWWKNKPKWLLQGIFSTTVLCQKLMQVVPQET
# [33] = molecular target: Serine/threonine-protein kinase ATR (Homo sapiens) (UniProt Q13535); further: assay method not described here
# [34] = molecular target: Proto-oncogene tyrosine-protein kinase Src (Homo sapiens) (UniProt P12931); further: assay method not described here
# [35] = molecular target: THUMP domain-containing protein 1 (Homo sapiens) (UniProt Q9NXG2); further: assay method not described here
# [36] = molecular target: F-actin-capping protein subunit alpha-2 (Homo sapiens) (UniProt P47755); further: assay method not described here
# [37] = molecular target: Single-stranded DNA-binding protein, mitochondrial (Homo sapiens) (UniProt Q04837); further: assay method not described here
# [38] = molecular target: Microtubule-actin cross-linking factor 1, isoforms 1/2/3/4/5 (Homo sapiens) (UniProt Q9UPN3); further: assay method not described here
# [39] = molecular target: Ceroid-lipofuscinosis neuronal protein 6 (Homo sapiens) (UniProt Q9NWW5); further: assay method not described here
# Chain of Ceroid-lipofuscinosis neuronal protein 6 (Homo sapiens) (Q9NWW5 whole entry): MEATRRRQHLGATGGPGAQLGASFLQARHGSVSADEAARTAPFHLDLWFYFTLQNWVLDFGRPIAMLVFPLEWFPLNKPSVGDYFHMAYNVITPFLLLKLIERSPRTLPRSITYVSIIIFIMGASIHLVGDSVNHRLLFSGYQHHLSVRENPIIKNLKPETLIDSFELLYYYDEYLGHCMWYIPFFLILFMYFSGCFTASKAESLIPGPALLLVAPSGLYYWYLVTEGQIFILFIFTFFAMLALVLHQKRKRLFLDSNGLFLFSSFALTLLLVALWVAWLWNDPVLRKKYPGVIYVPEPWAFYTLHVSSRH
# [40] = molecular target: Ribosome-binding protein 1 (Homo sapiens) (UniProt Q9P2E9); further: assay method not described here
# Wherever ED50 is given: assay method not described here.
# Chain of NADH dehydrogenase [ubiquinone] iron-sulfur protein 7, mitochondrial (Homo sapiens) (O75251 whole entry): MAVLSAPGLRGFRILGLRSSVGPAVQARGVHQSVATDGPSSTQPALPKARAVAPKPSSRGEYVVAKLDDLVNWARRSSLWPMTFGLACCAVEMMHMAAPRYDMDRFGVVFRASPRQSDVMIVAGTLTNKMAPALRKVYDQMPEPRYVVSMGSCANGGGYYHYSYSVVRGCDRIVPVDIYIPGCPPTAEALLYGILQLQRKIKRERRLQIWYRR
structure (smiles),measurement,setting,value
Cc1ccc(C(=O)Nc2cccc(C(F)(F)F)c2)cc1Nc1nc(-c2cccnc2)nc2c1cnn2C,ED50,[1],0.00309 µM
same,ED50,[2],111 µM
same,ED50,[3],501 µM
same,ED50,[4],0.00386 µM
same,ED50,[5],0.00509 µM
same,ED50,[6],3.25 µM
same,ED50,[7],4.77 µM
same,ED50,[8],32.5 µM
same,ED50,[9],0.00127 µM
same,ED50,[10],1.12 µM
same,ED50,[11],0.128 µM
same,IC50,Ephrin type-A receptor 1,0.303 µM
same,ED50,[12],0.00873 µM
same,ED50,[13],11 µM
same,ED50,[14],0.0535 µM
same,ED50,[15],13 µM
same,ED50,[16],19.2 µM
same,IC50,Ephrin type-A receptor 8,0.0012 µM
same,ED50,[17],0.0536 µM
same,ED50,[18],2.64 µM
same,ED50,[19],0.907 µM
same,ED50,[20],0.00763 µM
same,ED50,[21],0.13 µM
same,ED50,[22],0.178 µM
same,ED50,[23],15.5 µM
same,ED50,Ephrin type-A receptor 7,15.8 µM
same,ED50,[24],5.98 µM
same,ED50,[25],15.2 µM
same,ED50,[26],3.18 µM
same,ED50,Homo sapiens,0.0636 µM
same,ED50,[27],4.01 µM
same,ED50,[28],0.335 µM
same,ED50,[29],1.36 µM
same,ED50,[30],0.753 µM
same,ED50,[31],13.9 µM
same,ED50,[32],2.22 µM
same,ED50,[33],4.47 µM
same,ED50,[34],3.6 µM
same,ED50,[35],101 µM
same,ED50,[36],3.23 µM
same,ED50,[37],0.00621 µM
same,ED50,[38],5.13 µM
same,ED50,[39],12.5 µM
same,ED50,[40],11.3 µM
Cc1ccc(C(=O)Nc2cccc(C(F)(F)F)c2)cc1Nc1nc(-c2cccnc2)nc2nn(C)cc12,ED50,[1],1.81 µM
same,ED50,[2],4.5 µM
same,ED50,[3],9.38 µM
same,ED50,[4],0.0406 µM
same,ED50,[5],1.19 µM
same,ED50,[6],1.55 µM
same,ED50,[7],0.00453 µM
same,ED50,[8],0.000313 µM
same,ED50,[9],0.869 µM
same,ED50,[10],0.00986 µM
same,ED50,[11],650 µM
same,IC50,Ephrin type-A receptor 1,16.8 µM
same,ED50,[12],0.000624 µM
same,ED50,[13],0.00583 µM
same,ED50,[14],2.59 µM
same,ED50,[15],2.2 µM
same,ED50,[16],13.9 µM
same,IC50,Ephrin type-A receptor 8,0.21 µM
same,ED50,[17],0.0335 µM
same,ED50,[18],10.4 µM
same,ED50,[19],7.75 µM
same,ED50,[20],0.614 µM
same,ED50,[21],0.0232 µM
same,ED50,[22],1.74 µM
same,ED50,[23],0.287 µM
same,ED50,Ephrin type-A receptor 7,1.49 µM
same,ED50,[24],32.5 µM
same,ED50,[25],2.69 µM
same,ED50,[26],8.73 µM
same,ED50,Homo sapiens,233 µM
same,ED50,[27],0.12 µM
same,ED50,[28],0.13 µM
same,ED50,[29],7.84 µM
same,ED50,[30],1.29 µM
same,ED50,[31],6.08 µM
same,ED50,[32],1.19 µM
same,ED50,[33],0.0106 µM
same,ED50,[34],3.43 µM
same,ED50,[35],75 µM
same,ED50,[36],2.53 µM
same,ED50,[37],0.0346 µM
same,ED50,[38],0.0234 µM
same,ED50,[39],1910 µM
same,ED50,[40],0.277 µM
